What all share (format): biochemical
In test [1] the target is Pim1 kinase (Homo sapiens, UniProt P11309). Kind of test: Pim1 ATP depletion assay.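 Note: Luciferase-luciferin luminescence readout of residual ATP after PIM1 transfers phosphate to a peptide substrate, 40 µM ATP added, reaction run to roughly half ATP consumption.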 The settings on record: Pim1 ATP depletion assay; read-out: PIM1 IC50.
Test [2] has as its target Pim2 kinase (Homo sapiens, UniProt Q9P1W9). Kind of test: Pim2 ATP depletion assay.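 Note: Luciferase-based luminescent readout of ATP remaining after PIM2 phosphorylates a BAD peptide, final 5 nM enzyme, 4 µM ATP, 10 µM peptide, 2.5% DMSO, run to roughly half ATP consumption.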 The note with it: read-out: PIM2 IC50.
For test [3], the target named is Pim3 kinase (Homo sapiens, UniProt Q86V86). As to the kind of experiment: Pim3 ATP depletion assay. The settings on record: read-out: PIM3 IC50.

Each structure is given as a SMILES string. pIC50: −log10 of the molar value. A value given as a limit tells only on which side of the number the result lay.

Sequence of Pim2 kinase (Q9P1W9 whole entry): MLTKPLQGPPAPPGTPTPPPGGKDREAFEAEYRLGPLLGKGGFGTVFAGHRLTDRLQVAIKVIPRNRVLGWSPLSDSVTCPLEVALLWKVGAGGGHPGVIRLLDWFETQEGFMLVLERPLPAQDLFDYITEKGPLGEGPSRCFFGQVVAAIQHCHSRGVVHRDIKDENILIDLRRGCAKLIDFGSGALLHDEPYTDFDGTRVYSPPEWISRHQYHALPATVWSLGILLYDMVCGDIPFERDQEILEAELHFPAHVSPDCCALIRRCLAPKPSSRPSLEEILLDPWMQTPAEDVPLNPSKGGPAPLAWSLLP
Sequence of Pim1 kinase (P11309 whole entry): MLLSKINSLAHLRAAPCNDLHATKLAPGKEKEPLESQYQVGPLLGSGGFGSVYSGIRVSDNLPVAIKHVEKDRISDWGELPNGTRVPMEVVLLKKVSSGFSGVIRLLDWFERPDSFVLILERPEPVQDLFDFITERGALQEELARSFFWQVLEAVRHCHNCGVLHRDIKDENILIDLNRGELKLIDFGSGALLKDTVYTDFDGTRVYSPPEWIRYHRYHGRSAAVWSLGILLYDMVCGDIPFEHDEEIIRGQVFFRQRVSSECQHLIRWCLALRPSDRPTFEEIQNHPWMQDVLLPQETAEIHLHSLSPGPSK

By pIC50 is commonly meant −log10 of the IC50, conventionally taken in molar units. For the compound `Nc1ccc(-c2cncc3ccccc23)nc1C(=O)Nc1cnccc1N1CCC[C@H](N)C1` [Example 692, 3-Amino-6-isoquinolin-4-yl-pyridine-2-carboxylic acid (3-amino-3,4,5,6-tetrahydro-2H-[1,4′]bipyridinyl-3′-yl)-amide], the pIC50 in test [1], in test [2] and in test [3] was above 6.00 throughout.
On to `Nc1ccc(-c2cccc[n+]2[O-])nc1C(=O)Nc1cnccc1N1CCC[C@H](N)C1` [Example 693, 5-Amino-1′-oxy-[2,2′]bi-pyridinyl-6-carboxylic acid (3-amino-3,4,5,6-tetrahydro-2H-[1,4′]bipyridinyl-3′-yl)-amide], for which the pIC50 in test [1], in test [2] and in test [3] was above 6.00 in each case.
On to `COc1nccnc1-c1ccc(N)c(C(=O)Nc2cnccc2N2CCC[C@H](N)C2)n1` [Example 694, 3-Amino-6-(3-methoxy-pyrazin-2-yl)-pyridine-2-carboxylic acid (3-amino-3,4,5,6-tetrahydro-2H-[1,4′]bipyridinyl-3′-yl)-amide], for which the pIC50 in test [1], in test [2] and in test [3] was above 6.00 each time.
In the case of `Nc1ccc(-c2cccc(OCc3ccccc3)n2)nc1C(=O)Nc1cnccc1N1CCC[C@H](N)C1` [Example 695, 5-Amino-6′-benzyloxy-[2,2′]bi-pyridinyl-6-carboxylic acid (3-amino-3,4,5,6-tetrahydro-2H-[1,4′]bipyridinyl-3′-yl)-amide], the pIC50 in test [1], in test [2] and in test [3] was above 6.00 throughout.
For `COc1ccc(-c2ccc(N)c(C(=O)Nc3cnccc3N3CCC[C@H](N)C3)n2)nc1` [Example 696, 5-Amino-5′-methoxy-[2,2′]bi-pyridinyl-6-carboxylic acid (3-amino-3,4,5,6-tetrahydro-2H-[1,4′]bipyridinyl-3′-yl)-amide], the pIC50 in test [1], in test [2] and in test [3] was above 6.00 throughout.
Regarding `COc1cccnc1-c1ccc(N)c(C(=O)Nc2cnccc2N2CCC[C@H](N)C2)n1` [Example 697, 5-Amino-3′-methoxy-[2,2′]bi-pyridinyl-6-carboxylic acid (3-amino-3,4,5,6-tetrahydro-2H-[1,4′]bipyridinyl-3′-yl)-amide], the values for the pIC50 in test [1], in test [2] and in test [3] were above 6.00, 5.00 to 6.00 and above 6.00, respectively.
Turning to `CS(=O)(=O)c1ccc(-c2ccc(N)c(C(=O)Nc3cnccc3N3CCC[C@H](N)C3)n2)nc1` [Example 698, 5-Amino-5′-methanesulfonyl-[2,2′]bipyridinyl-6-carboxylic acid (3-amino-3,4,5,6-tetra-hydro-2H-[1,4′]bipyridinyl-3′-yl)-amide], the negative logarithm of the IC50 (pIC50) in test [1], in test [2] and in test [3] was above 6.00 each time.
On to `CSc1ccc(-c2ccc(N)c(C(=O)Nc3cnccc3N3CCC[C@H](N)C3)n2)nc1` [Example 699, 5-Amino-5′-methylsulfanyl-[2,2′]bipyridinyl-6-carboxylic acid (3-amino-3,4,5,6-tetra-hydro-2H-[1,4′]bipyridinyl-3′-yl)-amide], for which the pIC50 in test [1], in test [2] and in test [3] was above 6.00 each time.
Regarding `Nc1ccc(-c2ncc(Cl)cc2Cl)nc1C(=O)Nc1cnccc1N1CCC[C@H](N)C1` [Example 700, 5-Amino-3′,5′-dichloro-[2,2′]bi-pyridinyl-6-carboxylic acid (3-amino-3,4,5,6-tetrahydro-2H-[1,4′]bipyridinyl-3′-yl)-amide], the pIC50 in test [1], in test [2] and in test [3] was above 6.00 throughout.
As for `Cc1cc(Cl)cnc1-c1ccc(N)c(C(=O)Nc2cnccc2N2CCC[C@H](N)C2)n1` [Example 701, 5-Amino-5′-chloro-3′-methyl-[2,2′]bipyridinyl-6-carboxylic acid (3-amino-3,4,5,6-tetra-hydro-2H-[1,4′]bipyridinyl-3′-yl)-amide], the pIC50 in test [1], in test [2] and in test [3] was above 6.00 each time.
As to `Nc1ccc(-c2cccc(-n3cccn3)n2)nc1C(=O)Nc1cnccc1N1CCC[C@H](N)C1` [Example 703, 5-Amino-6′-pyrazol-1-yl-[2,2′]bipyridinyl-6-carboxylic acid (3-amino-3,4,5,6-tetra-hydro-2H-[1,4′]bipyridinyl-3′-yl)-amide], the pIC50 in test [1], in test [2] and in test [3] was above 6.00 in each case.
Turning to `NC(=O)c1ccnc(-c2ccc(N)c(C(=O)Nc3cnccc3N3CCC[C@H](N)C3)n2)c1` [Example 704, 5′-Amino-[2,2′]bipyridinyl-4,6′-dicarboxylic acid 4-amide 6′-[(3-amino-3,4,5,6-tetrahydro-2H-[1,4′]bipyridinyl-3′-yl)-amide]], the pIC50 in test [1], in test [2] and in test [3] was above 6.00 throughout.
For `COc1nc(-c2ccc(N)c(C(=O)Nc3cnccc3N3CCC[C@H](N)C3)n2)ccc1N` [Example 705, 5,5′-Diamino-6′-methoxy-[2,2′]bipyridinyl-6-carboxylic acid (3-amino-3,4,5,6-tetra-hydro-2H-[1,4′]bipyridinyl-3′-yl)-amide], the pIC50 in test [1], in test [2] and in test [3] was above 6.00 in each case.
For `CC(=O)c1cccc(-c2ccc(N)c(C(=O)Nc3cnccc3N3CCC[C@H](N)C3)n2)n1` [Example 706, 6′-Acetyl-5-amino-[2,2′]bi-pyridinyl-6-carboxylic acid (3-amino-3,4,5,6-tetrahydro-2H-[1,4′]bipyridinyl-3′-yl)-amide], the pIC50 in test [1], in test [2] and in test [3] was above 6.00 throughout.
On to `Cc1ccnc(-c2ccc(N)c(C(=O)Nc3cnccc3N3CCC[C@H](N)C3)n2)c1F` [Example 707, 5-Amino-3′-fluoro-4′-methyl-[2,2′]bipyridinyl-6-carboxylic acid (3-amino-3,4,5,6-tetra-hydro-2H-[1,4′]bipyridinyl-3′-yl)-amide], for which the negative logarithm of the IC50 (pIC50) in test [1], in test [2] and in test [3] was above 6.00 each time.
Consider `Cc1nc(-c2ccc(N)c(C(=O)Nc3cnccc3N3CCC[C@H](N)C3)n2)ccc1F` [Example 708, 5-Amino-5′-fluoro-6′-methyl-[2,2′]bipyridinyl-6-carboxylic acid (3-amino-3,4,5,6-tetra-hydro-2H-[1,4′]bipyridinyl-3′-yl)-amide], for which the negative-log IC50 (pIC50) in test [1], in test [2] and in test [3] was above 6.00 throughout.
Regarding `Cc1ccc(F)c(-c2ccc(N)c(C(=O)Nc3cnccc3N3CCC[C@H](N)C3)n2)n1` [Example 709, 5-Amino-3′-fluoro-6′-methyl-[2,2′]bipyridinyl-6-carboxylic acid (3-amino-3,4,5,6-tetra-hydro-2H-[1,4′]bipyridinyl-3′-yl)-amide], the negative-log IC50 (pIC50) in test [1], in test [2] and in test [3] was above 6.00 each time.
As to `Nc1ccc(-c2cccc(Cl)n2)nc1C(=O)Nc1cnccc1N1CCC[C@H](N)C1` [Example 710, 5-Amino-6′-chloro-[2,2′]bi-pyridinyl-6-carboxylic acid (3-amino-3,4,5,6-tetrahydro-2H-[1,4′]bipyridinyl-3′-yl)-amide], the pIC50 in test [1], in test [2] and in test [3] was above 6.00 in each case.
As to `Nc1cccc(-c2ccc(N)c(C(=O)Nc3cnccc3N3CCC[C@H](N)C3)n2)n1` [Example 711, 5,6′-Diamino-[2,2′]bipyridinyl-6-carboxylic acid (3-amino-3,4,5,6-tetrahydro-2H-[1,4′]bi-pyridinyl-3′-yl)-amide], the pIC50 in test [1], in test [2] and in test [3] was above 6.00 throughout.
Consider `Nc1ccc(-c2cccc(F)n2)nc1C(=O)Nc1cnccc1N1CCC[C@H](N)C1` [Example 712, 5-Amino-6′-fluoro-[2,2′]bi-pyridinyl-6-carboxylic acid (3-amino-3,4,5,6-tetrahydro-2H-[1,4′]bipyridinyl-3′-yl)-amide], for which the pIC50 in test [1], in test [2] and in test [3] was above 6.00 throughout.
For the compound `Nc1ccc(-c2ccc(Cl)cn2)nc1C(=O)Nc1cnccc1N1CCC[C@H](N)C1` [Example 713, 5-Amino-5′-chloro-[2,2′]bi-pyridinyl-6-carboxylic acid (3-amino-3,4,5,6-tetrahydro-2H-[1,4′]bipyridinyl-3′-yl)-amide], the pIC50 in test [1], in test [2] and in test [3] was above 6.00 throughout.
With `Nc1ccc(-c2ccc(C(F)(F)F)cn2)nc1C(=O)Nc1cnccc1N1CCC[C@H](N)C1` [Example 714, 5-Amino-5′-trifluoromethyl-[2,2′]bipyridinyl-6-carboxylic acid (3-amino-3,4,5,6-tetra-hydro-2H-[1,4′]bipyridinyl-3′-yl)-amide], the pIC50 in test [1], in test [2] and in test [3] was above 6.00 throughout.
For `Nc1ccc(-c2cc(C(F)(F)F)ccn2)nc1C(=O)Nc1cnccc1N1CCC[C@H](N)C1` [Example 715, 5-Amino-4′-trifluoromethyl-[2,2′]bipyridinyl-6-carboxylic acid (3-amino-3,4,5,6-tetra-hydro-2H-[1,4′]bipyridinyl-3′-yl)-amide], the negative-log IC50 (pIC50) in test [1], in test [2] and in test [3] was above 6.00 in each case.
Take `Nc1ccc(-c2ncccc2N)nc1C(=O)Nc1cnccc1N1CCC[C@H](N)C1` [Example 716, 5,3′-Diamino-[2,2′]bipyridinyl-6-carboxylic acid (3-amino-3,4,5,6-tetrahydro-2H-[1,4′]bi-pyridinyl-3′-yl)-amide]: the pIC50 in test [1], in test [2] and in test [3] was above 6.00 each time.
